These are literature values, as cited in patent publication US20240164409A1, “A METHOD OF REDUCING METHANE PRODUCTION IN A RUMINANT ANIMAL” (DIT AgTech Limited, priority 2021, published 2024).

The conditions of the series: for Characterised as: water solubility in words.

Structures are written as SMILES. ≈ marks a conversion by molar mass, not a printed value.

Turning to `O=[N+]([O-])OCCCO` [3-nitrooxypropanol], the Characterised as result is on record as “Soluble”. On to `BrC(Br)Br` [Bromoform], for which the Solubility in water is 3200 µg/mL (≈ 12.7 mM) and the Characterised as result is listed as “Sparingly soluble”.
